Data from patent US10647690B2, “2,3-epoxy succinyl derivative, preparation method and use thereof” (Institute of Pharmacology and Toxicology Academy of …, priority 2016, dated 2020).
Read-outs that look alike come from different tables or passages of the source.

Columns and labels:
Format in all cases: biochemical
[1] = molecular target: T1, Cathepsin S (Homo sapiens, UniProt P25774); assay: IC50 determination against Cathepsin S (Biovision kit K149-100); settings: CTSS
T1 construct: purchased Biovision K149-100
T1 sequence (P25774 115-331): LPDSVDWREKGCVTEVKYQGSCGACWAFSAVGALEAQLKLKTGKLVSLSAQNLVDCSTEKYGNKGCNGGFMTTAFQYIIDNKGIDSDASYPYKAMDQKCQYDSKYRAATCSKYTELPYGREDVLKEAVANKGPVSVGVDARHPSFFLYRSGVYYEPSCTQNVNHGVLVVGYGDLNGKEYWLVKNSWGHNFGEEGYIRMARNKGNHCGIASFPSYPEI
Protocol: (§1) 2. Method for determining IC50 of compounds against cathepsin:
IC50 of compounds against Cathepsin S was determined by using Cathepsin S Inhibitor Screening Kit (Product No. K149-100) from Biovision Company.
2.1.1.4 Preparation of Cathepsin S solution: Cathepsin S enzyme (46 μl) was added to Cathepsin S buffer (2254 μl), and mixed well, to prepare Cathepsin S enzyme solution with a volume of 2.3 ml, which was placed on ice for further use.
(§2) 2.1.2 Preparation of compound solutions: 30 mM and 10 mM compound stock solutions, and control compounds were gradiently diluted in DMSO at a ratio of 1:3, wherein the maximum dilution fold was 19683; the gradiently diluted compound solution (3 μl) was added to Cathepsin K, B, L, and S buffer (27 μl), respectively, and mixed well, wherein the control compounds (FF-FMK, F-F-FMK, FF-FMK and Z-FF-FMK) were at the concentrations of 66.67, 22.22, 7.41, 2.47, 0.82, 0.27, 0.091, 0.03, 0.01, 0.0034 and 0 μM, respectively, the test compounds were at the concentrations of 1000, 333.3, 111.1, 37, 12.3, 4.1, 1.4, 0.46, 0.15, 0.05 and 0 μM, respectively, and the final concentration of DMSO was 10%.
2.1.3.4 Cathepsin S: Cathepsin S substrate (90 μl) was added to Cathepsin S buffer (1710 μl), and mixed well, to prepare Cathepsin S substrate solution with a volume of 1.8 ml, which was placed on ice for further use.
(§3) Method for screening cathepsin inhibitors: the cathepsin solution (prepared in Item 2.1.1) was added to a 384-well plate (ProxiPlate-384 Plus, Perkinelmer) at 10 μl/well, and centrifuged at 1000 rpm for Imin; the compound solution (prepared in Item 2.1.2) was then added at 2 μl/well, and every concentration was repeated in two wells; the final concentrations of the test compounds were 100, 33.3, 11.1, 3.7, 1.23, 0.41, 0.14, 0.046, 0.015, 0.005 and 0 μM, respectively, wherein the final concentration of DMSO was 1%; after centrifugation at 1000 rpm for 1 min, the plate was put in a 25° C. incubator for 15 min; the cathepsin substrate solution was then added at 8 µl/well, and centrifuged at 1000 rpm for 1 min; and finally, the fluorescence signal was read in Enspire, wherein the exciting light was at a wavelength of 400 nm, the emitting light was at a wavelength of 505 nm, and continuous reading was performed at 37° C. for 120 min.
(§4) Data analysis: the slope (S) for all the samples was calculated by ΔRFU(RFU2−RFU1) and time ΔT(T2−T1), including negative control (Enzyme Control, EC) and positive control (Inhibitor Control, IC: 10 μM (FF-FMK, F-F-FMK, FF-FMK and Z-FF-FMK), and the calculation formula was as followed: Relative inhibition rate %=(SEC−SS)/(SEC−SIC)*100. The IC50 for each compound was obtained by means of fitting by software GraphPad Prism 5.0.

[2] = molecular target: T2, Cathepsin K (Homo sapiens, UniProt P43235); assay: IC50 determination against Cathepsin K (Biovision kit K150-100); settings: CTSK
T2 construct: purchased Biovision K150-100
T2 sequence (P43235 115-329): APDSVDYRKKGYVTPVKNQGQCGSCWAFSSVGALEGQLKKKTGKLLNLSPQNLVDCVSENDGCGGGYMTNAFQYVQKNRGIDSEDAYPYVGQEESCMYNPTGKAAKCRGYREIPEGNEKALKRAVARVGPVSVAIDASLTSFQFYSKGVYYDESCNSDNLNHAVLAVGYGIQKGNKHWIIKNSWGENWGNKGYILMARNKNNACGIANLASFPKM
Protocol: as §1
IC50 of compounds against Cathepsin K was determined by using Cathepsin K Inhibitor Screening Kit (Product No. K150-100) from Biovision Company;
2.1.1.1 Preparation of Cathepsin K solution: Cathepsin K enzyme (23 μl) and Cathepsin K reagent (46 μl) were added to Cathepsin K buffer (2231 μl), and mixed well, to prepare Cathepsin K enzyme solution with a volume of 2.3 ml, which was placed on ice for further use.
as §2
2.1.3.1 Cathepsin K: Cathepsin K substrate (90 μl) was added to Cathepsin K buffer (1710 μl), and mixed well, to prepare Cathepsin K substrate solution with a volume of 1.8 ml, which was placed on ice for further use.
as §3, §4

[3] = molecular target: T2, Cathepsin K; assay: Preliminary screening of Cathepsin K (Cathepsin K Inhibitor Screening Kit K150-100, Biovision); settings: relative inhibition rate vs 10 μM FF-FMK control
Protocol: 1. Method for preliminary screening of Cathepsin K:
Preliminary screening of Cathepsin K was performed by using Cathepsin K Inhibitor Screening Kit (Product No. K150-100) from Biovision Company.
1.1.1 Preparation of Cathepsin K enzyme solution: Cathepsin K enzyme (40 μl) and Cathepsin K reagent (80 μl) were added to Cathepsin K buffer (3.88 ml), and were mixed well, to prepare Cathepsin K enzyme solution with a volume of 4 ml, which was placed on ice for further use.
1.1.2 Preparation of a compound solution: different compounds were separately weighed and dissolved in DMSO (methyl sulfoxide), to prepare solutions at a concentration of 30 mM as stock solutions, and for some insoluble compounds, they were prepared into solutions at a concentration of 10 mM as stock solutions; the 30 mM and 10 mM compound stock solutions were diluted to 1 mM and 100 μM DMSO solutions, respectively; 1 mM and 100 μM compound DMSO solutions (2 μl) were separately added to CTSK buffer (18 μl), to prepare compound solutions at a final concentration of 100 μM and 10 μM, respectively, wherein the concentration of DMSO was 10%.
1.1.3 Preparation of Cathepsin K substrate solution: Cathepsin K substrate (160 μl) was added to Cathepsin K buffer (3.44 ml), and mixed homogeneously, to prepare Cathepsin K substrate solution with a volume of 3.6 ml, which was placed on ice for further use.
1.2 Method for screening Cathepsin K inhibitor: Cathepsin K enzyme solution (prepared in Item 1.1.1) was added to a 384-well plate (ProxiPlate-384 Plus, Perkinelmer) at 10 μl/well, and centrifuged at 1000 rpm for 1 min; the compound solution (prepared in Item 1.1.2) was then added at 2 µl/well, and centrifuged at 1000 rpm for 1 min, and every concentration was repeated in two wells; the plate was placed in a 25° C. incubator for 15 min; Cathepsin K substrate solution was then added at 8 μl/well, and centrifuged at 1000 rpm for 1 min; and finally, the fluorescence signal was read in Enspire, wherein the exciting light was at a wavelength of 400 nm, the emitting light was at a wavelength of 505 nm, and continuous reading was performed at 37° C. for 120 min.
1.3 Data analysis: the slope (S) for all the samples was calculated by ΔRFU (RFU2−RFU1) and time ΔT (T2−T1), including negative control (Enzyme Control, EC) and positive control (Inhibitor Control, IC: 10 μM FF-FMK), and the calculation formula was as followed: Relative inhibition rate %=(SEC−SS)/(SEC−SIC)*100.

[4] = Exp-1, read-out: IC50 (nM) Exp-1
[5] = Exp-2, read-out: IC50 (nM) Exp-2
[6] = average of Exp-1 and Exp-2, read-out: Ave of IC50

Work on `CCCNC(=O)[C@H]1O[C@@H]1C(=O)N[C@H](C(=O)N1CCC[C@H]1C(=O)O)[C@@H](C)CC` [zxy-60, CA-074, reference compound] yielded an IC50 [1, 4] of 3510 nM, an IC50 [1, 5] of 3230 nM and an IC50 [1, 6] of 3370 nM. It also gave an IC50 [2, 4] of 252 nM, an IC50 [2, 5] of 245 nM and an IC50 [2, 6] of 248 nM. For the same compound, the “Inhibition % (1 μM) replicate 1” value ([3]; 1 μM compound, replicate 1) was 88.44%, the “Inhibition % (1 μM) replicate 2” value ([3]; 1 μM compound, replicate 2) was 92.44% and the “Inhibition % (10 μM) replicate 1” value ([3]; 10 μM compound, replicate 1) was 94.49%. For the same compound, the “Inhibition % (10 μM) replicate 2” value ([3]; 10 μM compound, replicate 2) was 91.36%.
